Data: paper PMC6657668, “Porcine Beta-Defensin 2 Provides Protection Against Bacterial Infection by a Direct Bactericidal Activity and Alleviates Inflammation via Interference With the TLR4/NF-κB Pathway” (Frontiers in Immunology, 2019)
Where a SMILES comes first, the peptide text is derived from it.

Key:
NF-κB p65 = assay: Western blot of p65 and p-p65 in RAW 264.7 cells; assay type: cell-based, mouse
Description: RAW 264.7 cells were treated with LPS (1 μg/ml) alone or together with PBD-2 (10 μg/mL). After 6 h, the cells were lysed, and inflammatory proteins were detected through Western blot. Proteins were firstly analyzed with SDS-PAGE and then electro-transferred onto a PVDF (#ISEQ00010, Biosharp®, Beijing, China) membrane. The PVDF membrane was blocked with 1/100 bovine serum albumin (BSA, #V900933-100G, VETEC, Sigma-Aldrich®, St. Louis, MO, USA) at 10 μg/ml at 37°C for 2 h, washed with PBST five times, incubated with the antisera against p-p65 (# 3033), p65 (# 4764), p-ERK (# 4370), ERK (# 4695), p-p38 (# 4511), p38 (# 8690), p-JNK (# 4668), JNK (# 9258) (Cell Signaling Technology®, Danvers, MA, USA), and β-actin (# AA128, Beyotime®, Shanghai, China) at 2 μg/ml at 37°C for 2 h and washed five times again. The PVDF membrane was subsequently incubated with 1 μg/ml secondary antibody, namely, goat anti-rabbit IgG (# 7074S, Cell Signaling Technology®, Danvers, MA, USA), at 37°C for 2 h and washed five times. Lastly, immune-reactive bands were detected using an ECF Western blot system (Tanon 5200 Multi, Shanghai, China) and quantified using AlphaImager 2200 analysis software.

[1] = assay type: biochemical, Escherichia coli O55:B5; conditions: PBD-2 1, 5, and 10 μg/ml mixed with LPS, 37°C, 10 min; n = 6
TLR4 = assay: Interaction of PBD-2 with TLR4 in RAW 264.7 cells, coimmunoprecipitation; assay type: binding, mouse; conditions: PBD-2 1, 10, 30, and 50 μg/ml, 16 h, captured with PBD-2 antisera
Description: A Co-IP assay was conducted using a Co-IP kit (# abs955, Absin®, Shanghai, China) in accordance with the manufacturer's instructions. In brief, RAW 264.7 cells were cultured in dishes of 10 cm in diameter. The cells (1 × 10^7) were treated with different concentrations of PBD-2 (1, 10, 30, and 50 μg/ml) for 16 h and lysed using a lysis buffer that contained protease inhibitors […]. The soluble faction of the cell lysate was collected after centrifugation at 14,000 × g at 4°C for 10 min. Afterwards, 2 μl of PBD-2 antisera (with titer 1:500,000) or 2 μl of mouse IgG antisera (# sc-2025, Santa Cruz®, CA, USA) as control were incubated with 200 μg of the cell lysate at 4°C for 12 h. Protein A/G beads (5 μl) were added and incubated at 4°C for 12 h. The precipitates with the immune complexes were collected by centrifugation at 12,000 × g at 4°C for 1 min. The beads were washed with a wash buffer. TLR4 in the precipitates was detected with Western blot by using an antibody against TLR4 (# sc-293072, Santa Cruz®, Santa Cruz, CA, USA).

[2] = ref [11]; cited from earlier work
S. Typhimurium [3] = assay: Histopathology of caecum of mice infected with S. Typhimurium; conditions: PBD-2 expressed in TG mice; oral 2.5 × 10^8 CFU; 24 h post-infection; H&E; vs WT
Description: (§1) Four infection experiments were conducted to determine the resistance to S. Typhimurium of the TG mice. For body weight measurements, 7 WT and 7 TG mice were orally administered with 2.5 × 10^8 CFU of S. Typhimurium, and the body weight of each mouse was measured on days 1, 2, 3, 4, and 5 after infection. For the detection of the tissue weight ratios, bacterial loads in tissues and tissue lesions after S. Typhimurium infection, 9 WT and 8 TG mice were orally administered with 2.5 × 10^8 CFU of S. Typhimurium. The spleen, caecum and body weights of the mice were weighed at 24 h post-infection. The bacterial loads in the tissues were also measured ([26]). The spleen and caecum were weighed and homogenized in cold PBS at a ratio of 4 ml per gram of tissue and coated plates. The bacterial numbers in the homogenates were counted by serially diluting the homogenates and spreading on plates. Caeca were harvested for histopathological analysis by using the methods described above. The intestinal damage, including epithelial damage, submucosal oedema, and neutrophil aggregation, was observed.

S. Typhimurium [4] = assay: Serum cytokine levels of mice infected with S. Typhimurium (ELISA); assay type: in vivo, Salmonella Typhimurium 14028 (in mice); conditions: 24 h, n = 6
Description: At 24 h post-infection, blood samples of the mice were collected to detect cytokines IL-6 (# EMC004.96), tumor necrosis factor-α (TNF-α, # EMC102a.96), IL-1β (# EMC001b.96), and IL-12 (# EMC006.96) using ELISA kits (Neo-bioscience Technology Company, Shenzhen China). For cytokine detections in the WT mice with or without treatment of PBD-2, the blood samples were collected from the WT mice orally administered with solely 2.5 × 10^8 CFU of S. Typhimurium (n = 6) or together with PBD-2 at 5 mg/kg body weight (n = 6).

[5] = assay type: binding, Escherichia coli O55:B5; conditions: ITC, 25°C; PBD-2 0.75 mM in syringe, LPS in cell (0.010 to 0.050 mM; Figure S6: 0.050 mM)
S. Typhimurium [6] = assay: Bacterial load in caecum of mice infected with S. Typhimurium; conditions: PBD-2 expressed in TG mice; oral 2.5 × 10^8 CFU; 24 h post-infection; n = 6; vs WT
Description: as §1

[7] = test system: LPS-induced production of cytokines; assay: Serum cytokine levels of mice injected with LPS (ELISA); assay type: in vivo, mouse; conditions: 1 h, n = 6
Description: Six TG mice and six WT mice were separately injected with LPS (16 mg/kg body weight) intraperitoneally. The same number of TG mice and WT mice was injected with 100 μl of sterile PBS as a negative control. The sera from the mice in each group were collected 1 h after the injection to detect cytokines by ELISA.
The WT mice were injected with LPS alone or LPS with PBD-2 (0.5 mg/kg body weight) intraperitoneally (n = 6 each group) to detect the effect of synthetic PBD-2 on inflammation induced by LPS. The sera from the mice in each group were collected 1 h after the injection to detect the cytokines by ELISA.

S. Typhimurium [8] = test system: S. Typhimurium; design: species or system Salmonella Typhimurium 14028 (in mice); conditions: mouse, in vivo, po
[9] = PBD-2 expressed in TG mice, oral 2.5 × 10^8 CFU S. Typhimurium, vs WT
[10] = synthetic PBD-2 5 mg/kg orally with 2.5 × 10^8 CFU S. Typhimurium, WT mice, vs infection alone
[11] = PBD-2 expressed in TG mice, LPS 16 mg/kg i.p., vs WT
[12] = synthetic PBD-2 0.5 mg/kg i.p. with LPS 16 mg/kg, WT mice, vs LPS alone

Compound: CC[C@H](C)[C@H](NC(=O)[C@@H]1CSSC[C@@H]2NC(=O)[C@@H]3CCCN3C(=O)[C@H](CO)NC(=O)[C@H](Cc3ccccc3)NC(=O)[C@H](CC(N)=O)NC(=O)[C@@H]3CSSC[C@H](NC(=O)[C@H]([C@@H](C)O)NC(=O)CNC(=O)[C@H](CCC(=O)O)NC(=O)[C@H]([C@@H](C)CC)NC(=O)[C@H](CCCNC(=N)N)NC(=O)[C@H](CC(N)=O)NC(=O)[C@H](Cc4ccccc4)NC(=O)[C@H](CC(C)C)NC(=O)[C@@H]4CCCN4C2=O)C(=O)N[C@@H](Cc2ccc(O)cc2)C(=O)N[C@@H](CO)C(=O)NCC(=O)N[C@@H](CCCCN)C(=O)N[C@@H](C)C(=O)N[C@@H](CCCCN)C(=O)N[C@@H](CSSC[C@H](NC(=O)[C@@H](NC(=O)[C@H](Cc2ccc(O)cc2)NC(=O)[C@H](Cc2c[nH]cn2)NC(=O)[C@@H](N)CC(=O)O)[C@@H](C)CC)C(=O)N[C@@H](C)C(=O)N[C@@H](CCCCN)C(=O)N[C@@H](CCCCN)C(=O)NCC(=O)NCC(=O)N[C@@H]([C@@H](C)O)C(=O)N3)C(=O)N1)C(=O)N[C@@H](CCCNC(=N)N)C(=O)O [PBD-2, Porcine beta-defensin 2] (HELM PEPTIDE1{D.H.Y.I.C.A.K.K.G.G.T.C.N.F.S.P.C.P.L.F.N.R.I.E.G.T.C.Y.S.G.K.A.K.C.C.I.R}$PEPTIDE1,PEPTIDE1,5:R3-34:R3|PEPTIDE1,PEPTIDE1,12:R3-27:R3|PEPTIDE1,PEPTIDE1,17:R3-35:R3$$$V2.0; N-terminus and C-terminus assumed)
- LPS-induced NF-κB p65 phosphorylation (NF-κB p65; LPS 1 μg/ml, PBD-2 10 μg/mL (legend: various concentrations), 6 h): suppress the LPS-induced NF-κB p65 phosphorylation
- activation of NF-κB by PBD-2 itself (NF-κB p65; PBD-2 without LPS (Figure 5D)): did not activate NF-κB
- endotoxic activity of LPS [1]: did not affect the endotoxic activity of LPS
- coimmunoprecipitation of TLR4 with PBD-2 (TLR4): could react with the antibody against TLR4
- hemolytic activity [2]: limited hemolytic activity
- intestinal damage of the caecum (epithelial damage and submucosal oedema) (S. Typhimurium [3]): significantly milder intestinal damage (epithelial damage and submucosal oedema)
- neutrophil aggregation in the caecum (S. Typhimurium [3]): less neutrophil aggregation compared with that of the WT mice
- level of IL-1β in serum (S. Typhimurium [4]; [9]): significantly lower than those of the WT mice (p < 0.05)
- level of IL-6 in serum (S. Typhimurium [4]; [9]): significantly lower than those of the WT mice (p < 0.05)
- level of IL-12 in serum (S. Typhimurium [4]; [9]): significantly lower than those of the WT mice (p < 0.05)
- level of TNF-α in serum (S. Typhimurium [4]; [9]): significantly lower than those of the WT mice (p < 0.05)
- level of IL-1β in serum (S. Typhimurium [4]; [10]): significantly lower levels of proinflammatory cytokines than the mice infected with S. Typhimurium alone did (p < 0.05)
- level of IL-6 in serum (S. Typhimurium [4]; [10]): significantly lower levels of proinflammatory cytokines than the mice infected with S. Typhimurium alone did (p < 0.05)
- level of IL-12 in serum (S. Typhimurium [4]; [10]): significantly lower levels of proinflammatory cytokines than the mice infected with S. Typhimurium alone did (p < 0.05)
- level of TNF-α in serum (S. Typhimurium [4]; [10]): significantly lower levels of proinflammatory cytokines than the mice infected with S. Typhimurium alone did (p < 0.05)
- binding to LPS [5]: did not bind to LPS
- bacterial load in the caecum (S. Typhimurium [6]): smaller amount of bacterial load in the caecum compared with the WT mice (p < 0.05)
- LPS-induced IL-1β in serum [7, 11]: significantly lower in the TG mice than in the WT mice (p < 0.05)
- LPS-induced IL-6 in serum [7, 11]: significantly lower in the TG mice than in the WT mice (p < 0.05)
- LPS-induced IL-12 in serum [7, 11]: significantly lower in the TG mice than in the WT mice (p < 0.05)
- LPS-induced TNF-α in serum [7, 11]: significantly lower in the TG mice than in the WT mice (p < 0.05)
- LPS-induced IL-1β in serum [7, 12]: significantly lower levels of secreted TNF-α, IL-6, IL-1β, and IL-12 than those injected with LPS alone (p < 0.05)
- LPS-induced IL-6 in serum [7, 12]: significantly lower levels of secreted TNF-α, IL-6, IL-1β, and IL-12 than those injected with LPS alone (p < 0.05)
- LPS-induced IL-12 in serum [7, 12]: significantly lower levels of secreted TNF-α, IL-6, IL-1β, and IL-12 than those injected with LPS alone (p < 0.05)
- LPS-induced TNF-α in serum [7, 12]: significantly lower levels of secreted TNF-α, IL-6, IL-1β, and IL-12 than those injected with LPS alone (p < 0.05)
- survival at lower bacterial dose (S. Typhimurium [8]): all the WT and TG mice survived until the end of the experiments
- survival rate (S. Typhimurium [8]): 70%
